Results as given in patent US10927136B2, “Phosphorus prodrugs of pyrazolo-substituted pyrimidine sGC stimulators” (Cyclerion Therapeutics, Inc., priority 2016, dated 2021).
Like-named read-outs stand apart in the source and are kept apart here.

Columns and labels:
[1] = Rat PK following intravenous and oral dosing; format: in vivo, male Sprague-Dawley rats
sGC enzyme = biological target: T1, sGC enzyme (Homo sapiens, UniProt Q02108+Q02153); experiment: cGMP GloSensor cell-based assay, 384-well format; settings: for EC50: HEK293 GloSensor 40F cGMP cells, 10 μM DETA-NONOate, read-out: Absolute EC50
T1 construct: sGC enzyme activity values in HEK cells, determined by the GloSensor assay; host or cells: HEK293 expressing GloSensor 40F cGMP
T1 sequence (Q02153 1-619): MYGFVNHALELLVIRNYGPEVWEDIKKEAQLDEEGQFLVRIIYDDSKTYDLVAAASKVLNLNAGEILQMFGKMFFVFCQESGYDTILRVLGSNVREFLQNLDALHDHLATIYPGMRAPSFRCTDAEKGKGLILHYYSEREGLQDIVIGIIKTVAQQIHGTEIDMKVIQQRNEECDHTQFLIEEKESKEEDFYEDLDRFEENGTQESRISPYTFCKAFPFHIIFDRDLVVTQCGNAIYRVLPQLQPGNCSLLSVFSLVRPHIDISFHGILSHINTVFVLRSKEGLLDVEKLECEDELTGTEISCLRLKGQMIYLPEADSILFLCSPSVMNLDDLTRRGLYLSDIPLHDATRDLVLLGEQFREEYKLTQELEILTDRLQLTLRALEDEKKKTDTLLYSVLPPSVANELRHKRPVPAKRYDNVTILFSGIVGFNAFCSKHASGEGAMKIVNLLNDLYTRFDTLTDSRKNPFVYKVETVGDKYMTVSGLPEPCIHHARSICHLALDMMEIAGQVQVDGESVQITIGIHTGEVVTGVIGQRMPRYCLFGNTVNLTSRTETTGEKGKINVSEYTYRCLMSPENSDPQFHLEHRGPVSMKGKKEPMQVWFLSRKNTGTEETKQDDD
T1 sequence (Q02108 1-690): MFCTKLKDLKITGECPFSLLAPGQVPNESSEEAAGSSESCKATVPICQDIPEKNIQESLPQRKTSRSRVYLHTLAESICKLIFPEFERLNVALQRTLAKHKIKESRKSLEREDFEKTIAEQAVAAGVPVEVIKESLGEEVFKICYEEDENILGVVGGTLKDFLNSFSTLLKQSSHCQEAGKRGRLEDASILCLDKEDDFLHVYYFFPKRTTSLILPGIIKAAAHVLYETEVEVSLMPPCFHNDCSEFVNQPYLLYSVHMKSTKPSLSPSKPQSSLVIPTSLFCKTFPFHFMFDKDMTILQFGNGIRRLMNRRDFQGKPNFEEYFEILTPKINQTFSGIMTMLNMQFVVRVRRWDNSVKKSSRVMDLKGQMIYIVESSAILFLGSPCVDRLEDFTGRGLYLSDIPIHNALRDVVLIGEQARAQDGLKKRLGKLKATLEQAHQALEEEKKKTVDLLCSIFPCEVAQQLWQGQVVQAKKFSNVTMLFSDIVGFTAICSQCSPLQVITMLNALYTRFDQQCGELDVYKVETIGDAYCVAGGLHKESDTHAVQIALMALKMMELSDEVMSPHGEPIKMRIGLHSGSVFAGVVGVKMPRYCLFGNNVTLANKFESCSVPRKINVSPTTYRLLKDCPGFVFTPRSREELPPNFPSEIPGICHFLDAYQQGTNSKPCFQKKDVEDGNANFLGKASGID
Description: Human embryonic kidney cells (HEK293) cells expressing GloSensor™ 40F cGMP (Part No: CS182801, Promega) were used to evaluate the activity of test compounds. The luminescent biosensors (engineered luciferase) that were incorporated into these cells detect cGMP formed by the compounds stimulating the sGC enzyme and emit luminescence.
cGMP GloSensor cells were maintained in Dulbecco's Modification of Eagle's Medium (DMEM) supplemented with fetal bovine serum (FBS, 10% final) and hygromycine (200 ug/ml). The day before assay, cells were plated in DMEM with 10% FBS in a 50 μL volume at a density of 1.5×10^4 cells/well in a poly-D-lysine coated 384-well flat white-bottom plate (Corning Cat. No. 35661). Cells were incubated overnight at 37° C. in a humidified chamber with 5% CO2. The next day, medium was removed and cells were replaced with 40 ul/well of GloSensor™, 2 mM (Promega Cat No E1291). Cells were treated for 90 minutes at 25° C. to allow the substrate to equilibrate in the cells. Test compounds and Diethylenetriamine NONOate (DETA-NONOate) was diluted to 3 mM (20×) in serum-free CO2 independent medium and serially diluted at 4× dilutions to create 5× dose curve from which 10 ul was added to the wells (x μM concentration for test compound solution and 10 μM concentration for DETA-NONOate solution; wherein x is one of the following final concentrations).
For the kinetics studies, luminescence was measured right away for 0.2 sec per well with Envision (Perkin Elmer). For endpoint SAR screening, data were collected after 55 min incubation at room temperature.
Data analysis was carried out as indicated above in Example 2A.
sGC enzyme activity values in HEK cells, determined by the GloSensor assay, expressed as Absolute EC50 which is defined as the concentration at which a given compound elicits 50% of the high control response obtained with Compound Y, after normalization.

[2] = plasma, Intermediate 3 dosed 1 mg/kg IV in PEG
[3] = plasma, Intermediate 3 dosed 3.0 mg/kg PO

Compound	Vol. of Dist ([1]; Intermediate 3 dosed 1 mg/kg IV in PEG) [L/kg]	Bioavail. (%) ([1]; Intermediate 3 dosed 3.0 mg/kg PO)	AUC(0-inf) [1, 2] [ng·h/mL]	Cmax [1, 2] [ng/mL]	clearance [1, 2] [mL/min/kg]	AUC(0-t) [1, 3] [ng·h/mL]	Cmax [1, 3] [ng/mL]	Tmax [1, 3] [h]	half-life ([1]; plasma, iv, 1 mg/kg, Intermediate 3 dosed 1 mg/kg IV in PEG) [h]	EC50 (sGC enzyme; Parent compound column) [µM]	Vol. of Dist ([1]; Compound I-1 1 mg/kg IV in PBS, analyte Compound I-1) [L/kg]	sGC agonism as compared to parent drug (sGC enzyme; GloSensor assay)	EC50 (sGC enzyme; prodrug) [µM]
OC(CNc1nc(-c2cc(-c3ccon3)n(Cc3ccccc3F)n2)ncc1F)(C(F)(F)F)C(F)(F)F [Intermediate 3]	9.5	102	1100	227	16	3600 ± 280	250 ± 10	8	7.1	0.072			
O=P(O)(O)OC(CNc1nc(-c2cc(-c3ccon3)n(Cc3ccccc3F)n2)ncc1F)(C(F)(F)F)C(F)(F)F [Compound I-1]											4.4 ± 2.6	did not exhibit a high degree of sGC agonism	4.84
